According to patent publication US20060161221A1, “Activation of calcium-mediated cell functions in cells and tissues, including aggregation of human platelets, by nanosecond pulsed electric fields” (priority 2004, published 2006):
Entries after “also recorded” stand apart in the source; their conditions may differ.

Legend:
Type in all cases: cell-based, human
[1] = system: HL-60 cells; experiment: Fura-2 measurement of agonist-induced calcium mobilization with and without BAPTA, media without calcium
Text: (§1) Cell culture—Non-transformed HL-60 and Jurkat cells were obtained from and cultured as recommended by American Type Culture Collection (ATCC, Rockville, Md.) as previously described (Beebe, S. J., et al. (2002). IEEE Trans. Plasma Sci. 30:1 Part 2, 286-292; Beebe, S. J., et al. (2003). FASEB J. 17, 1493-1495). Cells were removed from log phase growth and suspended in Hanks Balanced Salt Solution (HBSS) in the presence or absence of Ca^2+ and Mg^2+. When calcium was omitted, cells were washed several times in buffer without added calcium. In other experiments, the calcium chelator BAPTA was added to chelate intracellular calcium. Cells were loaded with BAPTA-AM and washed in HBSS before the addition of agonists.
To be certain that BAPTA was able to chelate all intracellular calcium, two agents that mobilize calcium by two different mechanisms were used and the calcium concentration in the cell was directly measured using the fluorescent calcium indicator fura-2. Cells were loaded with Fura2 and BAPTA and tested in media without calcium. The first agonist tested was the purinergic agonist ATP, which leads to the release of intracellular calcium through a phospholipase C— and IP3-mediated mechanism through the IP3 receptor in the endoplasmic reticulum (Berridge, M. J. et al. (1998) Nature 395, 645-648). This is followed by an influx of calcium through store-operated calcium channels in the plasma membrane. […] The second agonist tested was cyclopiazonic acid (CPA), which causes increases in calcium by inhibiting the calcium-ATPase in the endoplasmic reticulum. This pump replenishes the intracellular calcium stores after actions by calcium-mobilizing agents. […] Thus, BAPTA inhibited rapid and transient as well as slow and sustained calcium mobilization by agents that acted on a plasma membrane receptor and an endoplasmic reticulum calcium pump.

[2] = system: Jurkat cells; experiment: Caspase activation (z-VAD-FITC, flow cytometry) in nsPEF-exposed, BAPTA-loaded Jurkat cells; conditions: energy density ~1.7 J/cc
Experimental: FIG. 2 describes the effect of intracellular calcium chelation by BAPTA on caspase activation in human Jurkat cells. Jurkat cells were incubated with BAPTA-AM ([…]) in Hanks Balanced salt solution (HBSS) with calcium for 30 minutes and washed in HBSS with calcium. The BAPTA loaded cells were exposed to nsPEF as indicated. The electric fields were adjusted to provide a similar energy density (˜1.7 J/cc) under all conditions. After exposure to nsPEF, the cells were incubated with a cell permeable, irreversible inhibitor of active caspases, z-VAD-FITC for 20 minutes before analysis by flow cytometry (Beebe et al., (2003) FASEB J 17, 1493-1495). The values for caspase activity are expressed as the geometric mean z-VAD-FITC fluorescence determined in 15,000 individual cells. […]
(§2) Determination of caspase activation in vivo—Caspase activity was determined in vivo using a fluorescent-labeled, irreversible caspase inhibitor, VAD-fmk-FITC (Val-Ala-Asp-fluoromethylketone labeled with fluoroisothiocyanate) that is specific for the active site of the enzyme (see Beebe et al., 2003). Briefly, cells were exposed to nsPEF, incubated in the presence of the fluorescent caspase inhibitor for 20 minutes, washed to remove background fluorescence and subjected to flow cytometry. Values are expressed as the geometric mean FITC fluorescence. […]

[3] = system: HL-60 cells; experiment: Caspase activation (z-VAD-FITC, flow cytometry) in nsPEF-exposed, BAPTA-loaded HL-60 cells; conditions: pulses at 10, 60 and 300 ns, equalized energy density
Experimental: Experiments with HL-60 cells in the presence and absence of BAPTA cells were carried out as described for Jurkat cells in FIG. 2 (n=4).
as §1, with “Cells were loaded with BAPTA-AM and washed in HBSS before the addition of agonists.” left out
as §2

[4] = system: HL-60 cells; experiment: Fluorometric analysis (fura-2) of intracellular free calcium [Ca2+]i in HL-60 cells; conditions: for change in [Ca2+]i: 0.1 μM
Experimental: Cell culture-Non-transformed HL-60 cells were used for this study and were obtained from American Type Culture Collection (ATCC, Rockville, Md.). […] 2 mM CaCl2 was added to this buffer when loading cells with fluorescent indicators unless otherwise stated. In some experiments extracellular calcium was omitted by washing the cells several times in the same physiological buffer without added calcium. […] Post pulse, the cell suspension was removed from the pulsing cuvette and assayed. Fluorometric Analysis of Internal Calcium Response-To analyze the response of a greater number of cells, the fluorescent indicator fura-2 (Molecular Probes, Eugene, Oreg.) was used with a fluorometer. HL-60 cells were incubated with fura-2/AM (2 μM) in the physiological buffer described above containing 2 mM calcium for 45 minutes at 37° C. The cells were then washed and resuspended in calcium-free or calcium-containing buffer at a concentration of 7.7×10^6 cells/ml. […] Pulser® cuvettes could not be used to perform calcium measurements in the fluorometer because of the aluminum plates, which act to block either the excitation light or the emission light depending on the placement of the cuvette in the fluorometer. Therefore, the cells were first placed in the fluorometer cuvette, to obtain a baseline reading, cells were then removed from the fluorometer cuvette with a Pasteur pipette and added to the Pulser® cuvette.

[5] = cells loaded with Fura2 and BAPTA

Nc1ncnc2c1ncn2[C@@H]1O[C@H](COP(=O)(O)OP(=O)(O)OP(=O)(O)O)[C@@H](O)[C@H]1O [ATP]
calcium mobilization (fura-2) ([1]; absence of BAPTA): rapid and transient increase

O=C(O)CN(CC(=O)O)c1ccccc1OCCOc1ccccc1N(CC(=O)O)CC(=O)O [BAPTA]
effect on nsPEF-induced caspase activation ([2]; pulses at 10 and 60 ns): no significant effect | reduction of nsPEF-induced caspase activity ([2]; pulses with 300 ns durations): about 25% | effect on ATP-induced calcium mobilization [1, 5]: completely inhibited | effect on CPA-mediated calcium mobilization [1, 5]: completely inhibited | effect on nsPEF-induced caspase activity [3]: did not significantly affect

O=c1ccn([C@@H]2O[C@H](COP(=O)(O)OP(=O)(O)OP(=O)(O)O)[C@@H](O)[C@H]2O)c(=O)[nH]1 [UTP]
[Ca2+]i on addition of 1.0 mM calcium to treated cells (capacitative calcium entry) ([4]; 10 μM UTP in low calcium-containing buffer, then 1.0 mM calcium added): rapid rise | reduction of peak [Ca2+]i effect when added after one 60 ns 15 kV/cm pulse ([4]; 10 μM, extracellular calcium deficient, vs UTP added before a pulse): approximately 60% | increase in [Ca2+]i ([4]; 10 μM, extracellular calcium present): approximately 300 nM | effect on [Ca2+]i compared with 10 μM ([4]; 100 μM, extracellular calcium present): did not produce any larger effect | effect on [Ca2+]i as % of that seen with 10 μM UTP ([4]; 0.1 M (so in the source), extracellular calcium present): approximately 20% | increase in [Ca2+]i ([4]; absence of extracellular calcium, transient): approximately 50 nM | [Ca2+]i increase by one 15 kV/cm pulse after the agonist, as % of pulse before agonist addition ([4]; extracellular calcium deficient): approximately 25% | reduction of [Ca2+]i increase by one 15 kV/cm pulse given after the agonist ([4]; extracellular calcium present): approximately 65% | reduction of [Ca2+]i effect when added after one 15 kV/cm pulse ([4]; extracellular calcium present, vs UTP by itself): approximately 60%

COc1ccc([C@@H]2Sc3ccccc3N(CCN(C)C)C(=O)[C@@H]2OC(C)=O)cc1 [diltiazem]
effect on nsPEF-induced increases in [Ca2+]i ([4]; HL-60 cells): no effect

C/C=C(/C)C(=O)O[C@H]1C(C)=C2[C@H]([C@@H]1OC(=O)CCCCCCC)[C@@](C)(OC(C)=O)C[C@H](OC(=O)CCC)[C@@]1(O)[C@H]2OC(=O)[C@@]1(C)O [thapsigargin]
[Ca2+]i response when added after one 15 kV/cm pulse ([4]; 0.1 μM at approximately 50 seconds, 1 mM extracellular calcium): did not increase | change in [Ca2+]i ([4]; extracellular calcium absent): smaller and more transient increase | change in [Ca2+]i ([4]; extracellular calcium present): prolonged increase; also recorded: gradual and sustained increase | reduction of [Ca2+]i increase by one 15 kV/cm pulse given after the agonist ([4]; extracellular calcium present): approximately 85%
